Patent publication US20210395256A1, “TYROSINE KINASE INHIBITORS, COMPOSITIONS AND METHODS THERE OF” (Betta Pharmaceuticals Co., Ltd., priority 2018, published 2021)

Experiments:
Type in all cases: in vitro ADME
[1] = Plasma protein binding (equilibrium dialysis), rat; conditions: pH 7.4, 6 hours dialysis; for fraction unbound at 6 h, 1 μM: read-out: Mean % Bound Rat (converted)
Description: (§1) Example 204 Plasma Protein Binding Measurements
(§2) The plasma protein binding was measured as the following procedure.
(§3) 1) Preparation of 100 mM sodium phosphate and 150 mM NaCl buffer (PBS)
(§4) A basic solution was prepared by dissolving 14.2 g/L Na2HPO4 and 8.77 g/L NaCl in deionized water and the solution could be stored at 4° C. for up to 7 days. An acidic solution was prepared by dissolving 12.0 g/L NaH2PO4 and 8.77 g/L NaCl in deionized water and the solution could be stored at 4° C. for up to 7 days. The basic solution was titrated with the acidic solution to pH 7.4 and store at 4° C. for up to 7 days. pH was checked on the day of experiment and was adjusted if outside specification of 7.4±0.1.
(§5) Frozen plasma was thawed immediately at room temperature.
(§6) The plasma was centrifuged at 3,220 g for 10 minutes to remove clots and supernatant was collected into a fresh tube. The pH of the plasma was checked and recorded.
(§7) Note: a). Only use plasma that has been thawed no more than twice since arrival. b). Only use plasma within the range of pH 7 to pH 8.
(§8) 3) Preparation of working solutions
(§9) The working solutions of test compounds and control compound ketoconazole were prepared in DMSO at the concentration of 200 μM. And then 3 μL of working solution was removed to mix with 597 μL of human, rat or mouse plasma to achieve a final concentration of 1 μM (0.5% DMSO). Plasma samples were vortexed thoroughly.
(§10) 4) Preparation of dialysis membranes
(§11) The dialysis membranes were soaked in ultrapure water for 60 minutes to separate strips, then in 20% ethanol for 20 minutes, finally in dialysis buffer for 20 minutes.
(§12) 5) Procedure for equilibrium dialysis
(§13) The dialysis apparatus was assembled according to the manufacturer's instruction. Each cell was filled with 120 μL of plasma sample and dialyzed against equal volume of dialysis buffer (PBS). The assay was performed in duplicate. The dialysis plate was sealed and incubated in an incubator at 37° C. with 5% CO2 at 100 rpm for 6 hours. At the end of incubation, seal was removed and 50 μL of samples from both buffer and plasma chambers were transferred to wells of a 96-well plate.
(§14) 6) Procedure for sample analysis
(§15) 50 μL of blank plasma was added to each buffer samples and an equal volume of PBS was supplemented to the collected plasma sample. 300 μL of room temperature quench solution (acetonitrile containing internal standards (1S, 100 nM Alprazolam, 500 nM Labetalol and 2 μM Ketoprofen)) was added to precipitate protein. Samples in plate were vortexed for 5 minutes and centrifuged at 3,220 g for 30 minutes at 4° C. And then 100 μL of the supernatant was transferred to a new 96-well plate with 100 μL or 200 μL water (depends on the LC-MS signal response and peak shape) for LC-MS/MS analysis.
(§16) Calculate the percentages of test compound and control compound bound as follows:
(§17) % Free=(Peak Area Ratiobuffer chamber/Peak Area Ratioplasma chamber)*100
(§18) % Recovery=(Peak Area Ratiobuffer chamber+Peak Area Ratioplasma chamber)/Peak Area Ratio total sample*100
(§19) Peak Area Ratiobuffer chamber means the conc for free fraction
(§20) Peak Area Ratioplasma chamber means the conc for both free and bound fraction
(§21) Peak Area Ratiototal sample means the conc for starting sample before incubation

[2] = Liver microsomes metabolic stability assay, human; conditions: human liver microsomes 0.5 mg/mL, 37° C.; for half-life at 2 μM: read-out: t1/2 Human
Procedure, shortened: (§22)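 Pooled human, male rat or male mouse liver microsomes (0.5 mg/mL final) incubated at 37° C with 2 μM compound, with or without 1 mM NADPH. Samples at 0-60 min quenched in cold acetonitrile and analyzed by LC-MS/MS in duplicate. t1/2 derived from ln(% remaining) vs time slope, converted to CLint (μL/min/mg).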

[3] = Liver microsomes metabolic stability assay, mouse; conditions: male, mouse liver microsomes 0.5 mg/mL, 37° C.; for half-life at 2 μM: read-out: t1/2 Mouse
Procedure, shortened: as §22

[4] = Plasma protein binding (equilibrium dialysis), mouse; conditions: pH 7.4, 6 hours dialysis; for fraction unbound at 6 h, 1 μM: read-out: Mean % Bound Mouse (converted)
Description: as §1, §2, §3, §4, §5, §6, §7, §8, §9, §10, §11, §12, §13, §14, §15, §16, §17, §18, §19, §20, §21

Structure (SMILES)	recovery at 6 h, 1 μM [1] [%]	fraction unbound at 6 h, 1 μM [1]	microsomal CLint at 2 μM [2] [µL/min/mg]	half-life at 2 μM [2] [min]	microsomal CLint at 2 μM [3] [µL/min/mg]	half-life at 2 μM [3] [min]	recovery at 6 h, 1 μM [4] [%]	fraction unbound at 6 h, 1 μM [4]
CC(C)(O)Cc1nnc(-c2cnn3ccc(N4CCC[C@@H]4c4cc(F)ccc4F)nc23)[nH]1 [Compound 30, (R)-1-(5-(5-(2-(2,5-difluorophenyl)pyrrolidin-1-yl)pyrazolo[1,5-a]pyrimidin-3-yl)-4H-1,2,4-triazol-3-yl)-2-methylpropan-2-ol]	92.5	0.174	16.8	82.7	35.6	38.9	90	0.0887
C[C@@H](CO)c1nnc(-c2cnn3ccc(N4CCC[C@@H]4c4cc(F)ccc4F)nc23)[nH]1 [Compound 39, (R)-2-(5-(5-((R)-2-(2,5-difluorophenyl)pyrrolidin-1-yl)pyrazolo[1,5-a]pyrimidin-3-yl)-4H-1,2,4-triazol-3-yl)propan-1-ol]	89.7	0.116	17.2	80.6	41.4	33.5	91.3	0.0676
C[C@H](N)c1nnc(-c2cnn3ccc(N4CCC[C@@H]4c4cc(F)ccc4F)nc23)[nH]1 [Compound 11, (S)-1-(5-(5-((R)-2-(2,5-difluorophenyl)pyrrolidin-1-yl)pyrazolo[1,5-a]pyrimidin-3-yl)-4H-1,2,4-triazol-3-yl)ethan-1-amine]	87.5	0.289	4.27		61.9		85.5	0.244
CC(C)(O)c1nnc(-c2cnn3ccc(N4CCC[C@@H]4c4cc(F)ccc4F)nc23)[nH]1 [Compound 7, (R)-2-(5-(5-(2-(2,5-difluorophenyl)pyrrolidin-1-yl)pyrazolo[1,5-a]pyrimidin-3-yl)-4H-1,2,4-triazol-3-yl)propan-2-ol]	90.8		11.1	124	19.4	71.5	89.4	0.0929

Second part, the compound after the results:

recovery at 6 h, 1 μM [1] [%]	fraction unbound at 6 h, 1 μM [1]	microsomal CLint at 2 μM [2] [µL/min/mg]	half-life at 2 μM [2] [min]	microsomal CLint at 2 μM [3] [µL/min/mg]	half-life at 2 μM [3] [min]	recovery at 6 h, 1 μM [4] [%]	fraction unbound at 6 h, 1 μM [4]	Structure (SMILES)
98.9	0.131	16.4	84.6	37	37.4	94.2	0.0998	OC1CC(c2nnc(-c3cnn4ccc(N5CCC[C@@H]5c5cc(F)ccc5F)nc34)[nH]2)C1 (stereo partly drawn) [Compound 31, (R)-3-(5-(5-(2-(2,5-difluorophenyl)pyrrolidin-1-yl)pyrazolo[1,5-a]pyrimidin-3-yl)-4H-1,2,4-triazol-3-yl)cyclobutan-1-ol]
	0.1	20.4	67.9	96.4	14.4		0.0443	C[C@H](O)c1nnc(-c2cnn3ccc(N4CCC[C@@H]4c4cc(F)ccc4F)nc23)[nH]1 [Compound 4, (S)-1-(5-(5-((R)-2-(2,5-difluorophenyl)pyrrolidin-1-yl)pyrazolo[1,5-a]pyrimidin-3-yl)-4H-1,2,4-triazol-3-yl)ethan-1-ol]
	0.0699	9.36	148	48.6	28.5		0.0397	OC1(c2nnc(-c3cnn4ccc(N5CCC[C@@H]5c5cc(F)ccc5F)nc34)[nH]2)CCC1 [Compound 23, (R)-1-(5-(5-(2-(2,5-difluorophenyl)pyrrolidin-1-yl)pyrazolo[1,5-a]pyrimidin-3-yl)-4H-1,2,4-triazol-3-yl)cyclobutan-1-ol]
93.8	0.0729	108	12.8	214	6.47	89.4	0.0488	Cc1nnc(-c2cnn3ccc(N4CCCC4c4cc(F)ccc4F)nc23)[nH]1 (stereo not drawn) [Comparative compound A, 5-[2-(2,5-Difluorophenyl)pyrrolidin-1-yl]-3-(5-methyl-1H-1,2,4-triazol-3-yl)pyrazolo[1,5-a]pyrimidine, reference compound]
